# Legend:
# Assay type in all cases: biochemical
# [1] = target: T1, AurA (Homo sapiens, UniProt O14965); assay: Desktop Profiler kinase panel, AurA; conditions: for inhibition at 10 µM: 10 micromolar concentration of the compound, read-out: Percent Inhibition AurA; for inhibition at 1 µM: 1 micromolar concentration of the compound
# T1 construct: purchased Caliper Life Sciences
# T1 sequence (O14965 1-403): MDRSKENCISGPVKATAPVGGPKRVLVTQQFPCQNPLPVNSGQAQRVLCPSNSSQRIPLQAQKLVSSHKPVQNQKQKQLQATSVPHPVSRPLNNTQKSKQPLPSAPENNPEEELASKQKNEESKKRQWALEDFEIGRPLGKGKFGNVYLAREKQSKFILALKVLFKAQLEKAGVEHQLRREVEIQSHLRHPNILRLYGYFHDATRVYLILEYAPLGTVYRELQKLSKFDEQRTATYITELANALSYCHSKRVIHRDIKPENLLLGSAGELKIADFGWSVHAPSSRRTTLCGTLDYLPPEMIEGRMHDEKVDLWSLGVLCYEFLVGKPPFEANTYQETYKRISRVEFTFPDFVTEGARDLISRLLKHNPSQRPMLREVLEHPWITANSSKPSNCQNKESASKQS
# Procedure: (§1) The Aurora assays described here are performed on two Caliper Life Sciences systems: the LC3000 and the Desktop Profiler. These provide data on enzyme activity via measurement of the relative amounts of phosphorylated or unphosphorylated fluorescently labelled substrate peptide at the end of an enzymatic reaction. These different states of peptide are resolved by applying a potential difference across the sample. The presence of the charged phosphate group on the product (as opposed to the substrate) causes a different peptide mobility between the two peptides. This is visualized by excitation of the fluorescent label on the substrate and product peptides and represented as peaks within the analysis software.
# (§2) The Desktop Profiler utilizes the same principle as the LC3000 for calculating percentage conversion of a substrate to product. Caliper Life Sciences provides proprietary flash frozen pre-made 384 well plates containing selected kinases. Each column in the 384 well plate contains a particular selected kinase. A second plate, the ‘substrate plate’ contains a mix of fluorescently labeled peptide substrate and ATP. These are arranged in columns so that transfer for substrate plate to enzyme plate provides the correct enzyme with the correct substrate/ATP concentration. Compounds are added to a thawed enzyme plate in the desired format, in single concentrations. Reactions are initiated by transfer of the substrate/ATP mix from the substrate plate. The enzyme plate is incubated for 90 mins at 25 C. The reaction is stopped by addition of 70 ul of Stop Buffer (100 mM HEPES pH 7.5, 0.015% Brij-35, 10 mM EDTA (Sigma, E7889)).
# (§3) Reading of the plate in the Profiler is identical to the LC3000, and the ratio between substrate and product peaks provides the activity of the enzyme in that well. This is best represented by a plate heat map which colors each well by percent inhibition as compared to positive and negative controls (no inhibitors and no ATP respectively).
# (§4) In the following Tables 3a-4-b, which show the results of the desktop profiler measurements, “+” means 50-70% inhibition, “++” means 70-90% inhibition, and “+++” means >90% inhibition. The enzymes tested for profiling were ABL, AKT1, AKT2, AurA, CHK1, CHK2, CK1d, Erk1, Erk2, FYN, GSK3b, INSR, LCK, LYN, MAPKAPK2, MET, MSK1, p38a, PKA, PKCz, PKD2, PRAK, RSK1 and SRC.
# [2] = target: T2, ABL (Homo sapiens, UniProt P00519); assay: Desktop Profiler kinase panel, ABL; conditions: for inhibition at 10 µM: 10 micromolar concentration of the compound, read-out: Percent Inhibition ABL; for inhibition at 1 µM: 1 micromolar concentration of the compound
# T2 construct: purchased Caliper Life Sciences
# T2 sequence (P00519 whole entry, species assumed): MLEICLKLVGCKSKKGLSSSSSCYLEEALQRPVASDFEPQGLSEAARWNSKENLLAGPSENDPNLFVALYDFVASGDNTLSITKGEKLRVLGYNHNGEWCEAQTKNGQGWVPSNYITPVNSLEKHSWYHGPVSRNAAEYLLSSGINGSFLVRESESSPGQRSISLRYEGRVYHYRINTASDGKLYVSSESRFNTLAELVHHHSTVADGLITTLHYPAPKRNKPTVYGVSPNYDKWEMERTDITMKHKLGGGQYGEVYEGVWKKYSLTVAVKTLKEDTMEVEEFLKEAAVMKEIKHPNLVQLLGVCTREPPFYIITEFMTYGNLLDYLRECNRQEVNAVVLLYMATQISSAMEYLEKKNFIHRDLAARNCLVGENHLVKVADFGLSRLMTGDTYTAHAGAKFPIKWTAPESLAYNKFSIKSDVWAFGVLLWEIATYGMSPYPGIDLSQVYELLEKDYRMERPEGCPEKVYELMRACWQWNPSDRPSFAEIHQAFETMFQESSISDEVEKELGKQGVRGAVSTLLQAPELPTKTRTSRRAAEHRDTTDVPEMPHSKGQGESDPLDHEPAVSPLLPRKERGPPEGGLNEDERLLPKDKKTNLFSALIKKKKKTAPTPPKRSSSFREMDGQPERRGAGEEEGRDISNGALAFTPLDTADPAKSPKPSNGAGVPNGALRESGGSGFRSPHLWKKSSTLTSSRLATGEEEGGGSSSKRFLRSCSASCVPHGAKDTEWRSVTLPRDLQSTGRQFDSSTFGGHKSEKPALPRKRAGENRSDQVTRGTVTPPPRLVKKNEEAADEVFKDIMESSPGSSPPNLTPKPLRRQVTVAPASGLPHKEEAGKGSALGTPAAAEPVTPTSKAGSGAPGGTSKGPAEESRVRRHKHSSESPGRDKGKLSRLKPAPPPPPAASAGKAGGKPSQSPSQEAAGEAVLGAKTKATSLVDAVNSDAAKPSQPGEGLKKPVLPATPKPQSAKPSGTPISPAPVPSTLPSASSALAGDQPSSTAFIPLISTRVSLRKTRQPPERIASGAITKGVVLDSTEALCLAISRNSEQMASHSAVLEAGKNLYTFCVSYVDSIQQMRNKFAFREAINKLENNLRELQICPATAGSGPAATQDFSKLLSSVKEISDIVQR
# Procedure: as §1, §2, §3, §4
# [3] = target: T3, FYN (Homo sapiens, UniProt P06241); assay: Desktop Profiler kinase panel, FYN; conditions: for inhibition at 10 µM: 10 micromolar concentration of the compound, read-out: Percent Inhibition FYN; for inhibition at 1 µM: 1 micromolar concentration of the compound
# T3 construct: purchased Caliper Life Sciences
# T3 sequence (P06241 whole entry, species assumed): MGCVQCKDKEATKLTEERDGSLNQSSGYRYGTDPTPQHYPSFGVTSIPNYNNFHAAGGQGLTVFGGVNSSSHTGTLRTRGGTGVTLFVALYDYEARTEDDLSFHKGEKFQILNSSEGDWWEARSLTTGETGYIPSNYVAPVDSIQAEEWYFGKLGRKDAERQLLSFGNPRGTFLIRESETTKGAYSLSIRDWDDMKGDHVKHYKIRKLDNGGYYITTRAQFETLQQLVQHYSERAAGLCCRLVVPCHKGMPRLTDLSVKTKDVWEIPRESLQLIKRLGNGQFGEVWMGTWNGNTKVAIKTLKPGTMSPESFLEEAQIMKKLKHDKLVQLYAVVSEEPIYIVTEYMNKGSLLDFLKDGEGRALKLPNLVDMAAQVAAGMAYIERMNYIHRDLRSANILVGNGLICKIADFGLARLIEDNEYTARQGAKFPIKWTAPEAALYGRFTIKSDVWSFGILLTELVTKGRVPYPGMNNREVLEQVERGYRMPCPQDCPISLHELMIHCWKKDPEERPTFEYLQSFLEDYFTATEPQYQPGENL
# Procedure: as §1, §2, §3, §4
# [4] = target: T4, LCK (Homo sapiens, UniProt P06239); assay: Desktop Profiler kinase panel, LCK; conditions: for inhibition at 10 µM: 10 micromolar concentration of the compound, read-out: Percent Inhibition LCK
# T4 construct: purchased Caliper Life Sciences
# T4 sequence (P06239 whole entry, species assumed): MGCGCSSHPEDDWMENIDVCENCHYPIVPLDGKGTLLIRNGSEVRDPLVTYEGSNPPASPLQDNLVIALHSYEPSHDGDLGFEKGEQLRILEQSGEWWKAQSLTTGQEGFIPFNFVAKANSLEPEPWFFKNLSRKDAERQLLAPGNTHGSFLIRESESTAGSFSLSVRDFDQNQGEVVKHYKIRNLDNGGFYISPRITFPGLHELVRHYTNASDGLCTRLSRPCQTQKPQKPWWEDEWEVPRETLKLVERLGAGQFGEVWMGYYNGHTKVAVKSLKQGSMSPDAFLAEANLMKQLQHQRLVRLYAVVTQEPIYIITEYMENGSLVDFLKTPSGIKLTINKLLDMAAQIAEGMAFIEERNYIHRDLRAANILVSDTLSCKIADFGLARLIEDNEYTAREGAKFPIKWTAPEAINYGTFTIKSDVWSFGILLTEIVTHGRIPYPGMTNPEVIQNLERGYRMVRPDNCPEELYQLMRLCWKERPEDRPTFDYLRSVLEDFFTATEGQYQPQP
# Procedure: as §1, §2, §3, §4
# [5] = target: T5, LYN (Homo sapiens, UniProt P07948); assay: Desktop Profiler kinase panel, LYN; conditions: for inhibition at 10 µM: 10 micromolar concentration of the compound, read-out: Percent Inhibition LYN
# T5 construct: purchased Caliper Life Sciences
# T5 sequence (P07948 whole entry, species assumed): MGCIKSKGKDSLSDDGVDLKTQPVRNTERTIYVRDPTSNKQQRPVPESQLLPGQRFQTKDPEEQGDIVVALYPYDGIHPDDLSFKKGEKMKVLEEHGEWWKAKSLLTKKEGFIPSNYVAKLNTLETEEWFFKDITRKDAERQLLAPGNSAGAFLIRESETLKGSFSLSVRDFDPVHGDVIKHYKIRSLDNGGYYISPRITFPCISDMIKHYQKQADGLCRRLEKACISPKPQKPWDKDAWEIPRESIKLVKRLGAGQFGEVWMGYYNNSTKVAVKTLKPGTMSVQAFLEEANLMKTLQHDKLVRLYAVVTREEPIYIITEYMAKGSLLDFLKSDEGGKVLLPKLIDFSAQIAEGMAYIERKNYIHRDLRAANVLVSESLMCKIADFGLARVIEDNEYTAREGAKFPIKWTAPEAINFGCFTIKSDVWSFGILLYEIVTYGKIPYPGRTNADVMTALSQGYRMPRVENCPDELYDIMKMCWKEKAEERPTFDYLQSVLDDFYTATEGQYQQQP
# Procedure: as §1, §2, §3, §4
# [6] = target: T6, SRC (Homo sapiens, UniProt P12931); assay: Desktop Profiler kinase panel, SRC; conditions: for inhibition at 10 µM: 10 micromolar concentration of the compound, read-out: Percent Inhibition SRC; for inhibition at 1 µM: 1 micromolar concentration of the compound
# T6 construct: purchased Caliper Life Sciences
# T6 sequence (P12931 whole entry, species assumed): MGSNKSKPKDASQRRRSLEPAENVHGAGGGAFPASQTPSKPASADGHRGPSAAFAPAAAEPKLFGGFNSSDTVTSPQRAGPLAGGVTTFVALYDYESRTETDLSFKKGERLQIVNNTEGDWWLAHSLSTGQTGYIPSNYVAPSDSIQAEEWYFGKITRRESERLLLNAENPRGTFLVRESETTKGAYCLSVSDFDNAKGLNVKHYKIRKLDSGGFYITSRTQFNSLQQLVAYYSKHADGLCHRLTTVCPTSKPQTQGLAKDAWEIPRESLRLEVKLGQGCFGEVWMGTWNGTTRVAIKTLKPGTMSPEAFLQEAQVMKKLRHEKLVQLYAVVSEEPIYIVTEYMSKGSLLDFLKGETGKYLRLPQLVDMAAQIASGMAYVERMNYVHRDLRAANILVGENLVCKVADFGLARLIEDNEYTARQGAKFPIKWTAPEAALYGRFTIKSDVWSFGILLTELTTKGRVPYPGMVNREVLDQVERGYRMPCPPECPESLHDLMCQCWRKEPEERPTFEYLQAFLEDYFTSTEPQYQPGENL
# Procedure: as §1, §2, §3, §4
# [7] = target: T7, GST-Aurora A (Homo sapiens, UniProt O14965); assay: Aurora A IC50, Caliper LC3000 mobility shift assay; conditions: LC3000 method; 15 uM ATP (the KM value); read-out: Aurora Kinase A Activity (IC50)
# T7 construct: N-terminal GST fusion with full length Aurora A (1-403 amino acids); purchased Carna Biosciences 05-101
# T7 sequence (O14965 1-403): T1 sequence (O14965 1-403)
# Outline: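 Readout: percent conversion of FITC-LRRASLG (1 uM) to phosphopeptide, resolved electrophoretically on a Caliper LC3000, fitted against inhibitor concentration for IC50. Reaction: N-terminal GST full-length Aurora A, ATP at its KM (15 uM), pH 7.5 HEPES with MgCl2/DTT, 25 C for 90 min.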
# [8] = target: T8, CHK2 (Homo sapiens, UniProt O96017); assay: Desktop Profiler kinase panel, CHK2; conditions: 10 micromolar concentration of the compound; read-out: Percent Inhibition CHK2
# T8 construct: purchased Caliper Life Sciences
# T8 sequence (O96017 whole entry, species assumed): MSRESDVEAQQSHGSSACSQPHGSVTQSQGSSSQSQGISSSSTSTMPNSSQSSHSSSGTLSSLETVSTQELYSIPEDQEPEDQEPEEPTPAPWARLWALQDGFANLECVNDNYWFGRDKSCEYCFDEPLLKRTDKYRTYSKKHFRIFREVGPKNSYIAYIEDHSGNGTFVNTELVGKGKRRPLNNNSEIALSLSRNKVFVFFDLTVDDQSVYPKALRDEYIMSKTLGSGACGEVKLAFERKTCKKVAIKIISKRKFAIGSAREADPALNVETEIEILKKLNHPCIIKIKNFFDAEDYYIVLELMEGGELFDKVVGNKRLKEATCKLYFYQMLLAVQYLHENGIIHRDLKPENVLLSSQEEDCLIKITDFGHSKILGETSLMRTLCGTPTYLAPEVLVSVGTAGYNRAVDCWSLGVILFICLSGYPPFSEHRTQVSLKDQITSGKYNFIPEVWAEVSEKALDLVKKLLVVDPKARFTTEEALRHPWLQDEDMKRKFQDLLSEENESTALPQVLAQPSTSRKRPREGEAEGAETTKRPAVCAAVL
# Procedure: as §1, §2, §3, §4
# [9] = 1 micromolar concentration of the compound
SMILES,inhibition at 10 µM [1] [%],inhibition at 10 µM [3] [%],IC50 [7] [nM],inhibition at 1 µM [1] [%],other results
"O=c1[nH]c2ncccc2c2cc(Cl)ccc12 [Example 6, 9-Chloro-5H-benzo[c][1,8]naphthyridin-6-one]",50 to 70,,,,
"O=c1[nH]c2ncc(Cl)cc2c2ccccc12 [Example 9, 2-Chloro-5H-benzo[c][1,8]naphthyridin-6-one]",50 to 70,,,,
"O=c1[nH]c2ncc(Nc3ccccc3)cc2c2ccccc12 [Example 12, 2-Phenylamino-5H-benzo[c][1,8]naphthyridin-6-one]",,50 to 70,,,inhibition at 10 µM [2]: 70 to 90%
"O=c1[nH]c2ncc(NCc3ccccc3)cc2c2ccccc12 [Example 13, 2-Benzylamino-5H-benzo[c][1,8]naphthyridin-6-one]",,> 90,,,inhibition at 10 µM [2]: 50 to 70%; inhibition at 10 µM [4]: 50 to 70%; inhibition at 10 µM [5]: 70 to 90%; inhibition at 10 µM [6]: 70 to 90%
"O=c1[nH]c2ncccc2c2cc(NCc3ccccc3)ccc12 [Example 25, 9-Benzylamino-5H-benzo[c][1,8]naphthyridin-6-one]",,,> 100,70 to 90,
"O=c1[nH]c2ncccc2c2cc(N3CCOCC3)ccc12 [Example 26, 9-Morpholin-4-yl-5H-benzo[c][1,8]naphthyridin-6-one]",70 to 90,,,,inhibition at 10 µM [8]: 50 to 70%
"COCCNc1ccc2c(=O)[nH]c3ncccc3c2c1 [Example 27, 9-(2-Methoxy-ethylamino)-5H-benzo[c][1,8]naphthyridin-6-one]",70 to 90,,,,inhibition at 10 µM [8]: 50 to 70%
"COc1ccc(Nc2ccc3c(=O)[nH]c4ncccc4c3c2)cc1 [Example 29, 9-(4-Methoxy-phenylamino)-5H-benzo[c][1,8]naphthyridin-6-one]",70 to 90,,> 100,50 to 70,
"COc1ccccc1Nc1ccc2c(=O)[nH]c3ncccc3c2c1 [Example 30, 9-(2-Methoxy-phenylamino)-5H-benzo[c][1,8]naphthyridin-6-one]",> 90,50 to 70,> 100,70 to 90,inhibition at 10 µM [2]: 50 to 70%; inhibition at 10 µM [5]: 70 to 90%; inhibition at 10 µM [6]: 50 to 70%
"COc1ccc(CNc2ccc3c(=O)[nH]c4ncccc4c3c2)cc1 [Example 33, 9-(4-Methoxy-benzylamino)-5H-benzo[c][1,8]naphthyridin-6-one]",70 to 90,,,50 to 70,
"COc1ccccc1CNc1ccc2c(=O)[nH]c3ncccc3c2c1 [Example 34, 9-(2-Methoxy-benzylamino)-5H-benzo[c][1,8]naphthyridin-6-one]",,,> 100,> 90,
"O=c1[nH]c2ncccc2c2cc(NCc3cccc(F)c3)ccc12 [Example 35, 9-(3-Fluoro-benzylamino)-5H-benzo[c][1,8]naphthyridin-6-one]",,,> 100,> 90,
"COc1ccc(CCNc2ccc3c(=O)[nH]c4ncccc4c3c2)cc1 [Example 36, 9-[2-(4-Methoxy-phenyl)-ethylamino]-5H-benzo[c][1,8]naphthyridin-6-one]",> 90,50 to 70,> 100,50 to 70,inhibition at 10 µM [8]: 70 to 90%
"COc1ccc(CNc2cnc3[nH]c(=O)c4ccccc4c3c2)cc1 [Example 37, 2-(4-Methoxy-benzylamino)-5H-benzo[c][1,8]naphthyridin-6-one]",50 to 70,,,,
"COc1cccc(CNc2cnc3[nH]c(=O)c4ccccc4c3c2)c1 [Example 38, 2-(3-Methoxy-benzylamino)-5H-benzo[c][1,8]naphthyridin-6-one]",50 to 70,,,,
"COc1ccccc1CNc1cnc2[nH]c(=O)c3ccccc3c2c1 [Example 39, 2-(2-Methoxy-benzylamino)-5H-benzo[c][1,8]naphthyridin-6-one]",50 to 70,,,,
"O=c1[nH]c2nccc(Nc3ccccc3)c2c2ccccc12 [Example 95, 1-Phenylamino-5H-benzo[c][1,8]naphthyridin-6-one]",70 to 90,> 90,,50 to 70,"inhibition at 10 µM [8]: 50 to 70%; inhibition at 1 µM [2]: > 90%; inhibition at 10 µM [2]: > 90%; inhibition at 1 µM [4, 9]: 50 to 70%; inhibition at 10 µM [4]: 70 to 90%; inhibition at 10 µM [5]: > 90%; inhibition at 1 µM [3]: > 90%; inhibition at 1 µM [6]: > 90%; inhibition at 10 µM [6]: > 90%"
"COc1ccccc1Nc1ccnc2[nH]c(=O)c3ccccc3c12 [Example 114, 1-(2-Methoxy-phenylamino)-5H-benzo[c][1,8]naphthyridin-6-one]",> 90,50 to 70,> 100,70 to 90,"inhibition at 10 µM [8]: 50 to 70%; inhibition at 1 µM [2]: 70 to 90%; inhibition at 10 µM [2]: > 90%; inhibition at 10 µM [4]: 50 to 70%; inhibition at 1 µM [5, 9]: 70 to 90%; inhibition at 10 µM [5]: > 90%; inhibition at 1 µM [3]: 70 to 90%; inhibition at 1 µM [6]: 70 to 90%; inhibition at 10 µM [6]: > 90%"
"O=c1[nH]c2nccc(Nc3ccc(Oc4ccccc4)cc3)c2c2ccccc12 [Example 121, 1-(4-Phenoxy-phenylamino)-5H-benzo[c][1,8]naphthyridin-6-one]",50 to 70,70 to 90,,,inhibition at 10 µM [4]: 70 to 90%; inhibition at 10 µM [5]: 70 to 90%; inhibition at 10 µM [6]: 70 to 90%
"COc1ccc(Oc2ccnc3[nH]c(=O)c4ccccc4c23)cc1 [Example 125, 1-(4-Methoxy-phenoxy)-5H-benzo[c][1,8]naphthyridin-6-one]",,,,,inhibition at 1 µM [2]: 70 to 90%; inhibition at 1 µM [3]: 70 to 90%
"Clc1nc2nccc(Oc3ccccc3)c2c2ccccc12 [Example 140, 6-Chloro-1-phenoxy-benzo[c][1,8]naphthyridine]",,50 to 70,,,inhibition at 10 µM [2]: 50 to 70%; inhibition at 10 µM [6]: 50 to 70%
"Nc1ccnc2[nH]c(=O)c3ccccc3c12 [Example 141, 1-Amino-5H-benzo[c][1,8]naphthyridin-6-one]",50 to 70,,,,
"COc1cc2c(=O)[nH]c3nccc(Nc4ccccc4F)c3c2cc1OC [Example 216, 1-(2-Fluoro-phenylamino)-8,9-dimethoxy-5H-benzo[c][1,8]naphthyridin-6-one]",,,11 to 100,,
"O=C(c1ccc(F)cc1C(F)(F)F)N1CCOc2cc(Oc3ccnc4[nH]c(=O)c5ccccc5c34)ccc21 [Example 219, 1-[4-(4-Fluoro-2-trifluoromethyl-benzoyl)-3,4-dihydro-2H-benzo[1,4]oxazin-7-yloxy]-5H-benzo[c][1,8]naphthyridin-6-one]",,,> 100,,
"O=C(c1cccn(-c2ccc(F)cc2)c1=O)N1CCOc2cc(Oc3ccnc4[nH]c(=O)c5ccccc5c34)ccc21 [Example 228, 1-{4-[1-(4-Fluoro-phenyl)-2-oxo-1,2-dihydro-pyridine-3-carbonyl]-3,4-dihydro-2H-benzo[1,4]oxazin-7-yloxy}-5H-benzo[c][1,8]naphthyridin-6-one]",,,> 100,,
